Test results from US20100286215A1, “BIS-AROMATIC COMPOUNDS USEFUL IN THE TREATMENT OF INFLAMMATION” (BIS-AROMATIC COMPOUNDS USEFUL IN THE TREATMENT OF …, priority 2007, published 2010).

Target: T1, Recombinant human LTC4 synthase (Homo sapiens, UniProt Q16873)
T1 construct: made in house; host or cells: Pichia pastoris ('Piccia pastoralis' [sic])
T1 sequence (Q16873 1-150): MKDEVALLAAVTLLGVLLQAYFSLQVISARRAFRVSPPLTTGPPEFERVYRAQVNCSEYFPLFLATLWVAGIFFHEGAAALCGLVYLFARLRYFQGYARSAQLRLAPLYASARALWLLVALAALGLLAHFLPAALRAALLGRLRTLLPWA
Assay: LTC4 synthase assay (conversion of LTA4 methyl ester to LTC4 methyl ester, HPLC)
Type: biochemical
Settings: inhibitor concentration 10 μM; read-out: Percantage Inhibition at 10 μM (unless specified otherwise)
Description: In the assay LTC4 synthase catalyses the reaction where the substrate LTA4 methyl ester is converted to LTC4 methyl ester. Recombinant human LTC4 synthase is expressed in Piccia pastoralis and the purified enzyme is dissolved in 25 mM Tris-buffer pH 7.8 and stored at −20° C. The assay is performed in phosphate buffered saline (PBS) pH 7.4, supplemented with 5 mM glutathione (GSH). The reaction is terminated by addition of acetonitrile/MeOH/acetic acid (50/50/1). The assay is performed at rt in 96-well plates. Analysis of the formed LTC4 methyl ester is performed with reversed phase HPLC (Waters 2795 utilizing an Onyx Monolithic C18 column). The mobile phase consists of acetonitrile/MeOH/H2O (32.5/30/37.5) with 1% acetic acid pH adjusted with NH3 to pH 5.6, and absorbance measured at 280 nm with a Waters 2487 UV-detector.
The following is added chronologically to each well: • 1. 50 μl assay buffer, PBS with 5 mM GSH. • 2. 0.5 μl inhibitor in DMSO. • 3. 2 μl LTC4 synthase in PBS. The total protein concentration in this solution is 0.025 mg/ml. Incubation of the plate at room temperature for 10 minutes. • 4. 0.5 μl LTA4 methyl ester. Incubation of the plate at rt for 1 min. • 5. 50 μl stop solution. 80 μl of the incubation mixture is analysed with HPLC.

Compound `O=C(Nc1ccc(C(=O)c2ccc(Nc3ccc(F)c(F)c3)c(C(=O)O)c2)cc1)Nc1cccc(Cl)c1` [5:1, 5-{4-[3-(3-Chloro-phenyl)-ureido]-benzoyl}-2-(3,4-difluoro-phenylamino)-benzoic acid] has an inhibition at 10 µM of 95%.
With `CCOc1ccc(NC(=O)Nc2ccc(C(=O)c3ccc(Nc4ccc(F)c(F)c4)c(C(=O)O)c3)cc2)cc1` [5:2, 2-(3,4-Difluoro-phenylamino)-5-{4-[3-(4-ethoxy-phenyl)-ureido]-benzoyl}-benzoic acid] the inhibition at 10 µM was 100%.
`O=C(c1ccc(Nc2ccc(F)c(F)c2)cc1)c1ccc(Nc2ccc(F)c(F)c2)c(C(=O)O)c1` [5:3, 2-(3,4-Difluoro-phenylamino)-5-[4-(3,4-difluoro-phenylamino)-benzoyl]-benzoic acid] showed an inhibition at 10 µM of 84%.
Work on `O=C(c1ccc(NC(=O)c2cc(Cl)ccc2O)cc1)c1ccc(Nc2ccc(F)c(F)c2)c(C(=O)O)c1` [5:4, 5-[4-(5-Chloro-2-hydroxy-benzoylamino)-benzoyl]-2-(3,4-difluoro-phenylamino)-benzoic acid] yielded an inhibition at 10 µM of 78%.
For `O=C(c1ccc(NC(=O)c2ccccc2Cl)cc1)c1ccc(Nc2ccc(F)c(F)c2)c(C(=O)O)c1` [5:5, 5-[4-(2-Chloro-benzoylamino)-benzoyl]-2-(3,4-difluoro-phenylamino)-benzoic acid], the inhibition at 10 µM was 97%.
`O=C(c1ccc(Nc2ccc(Cl)cn2)cc1)c1ccc(Nc2ccc(F)c(F)c2)c(C(=O)O)c1` [5:6, 5-[4-(5-Chloro-pyridin-2-ylamino)-benzoyl]-2-(3,4-difluoro-phenylamino)-benzoic acid] was tested, and the inhibition at 10 µM was 84%.
For `O=C(c1ccc(Nc2ccc(Cl)nc2)cc1)c1ccc(Nc2ccc(F)c(F)c2)c(C(=O)O)c1` [5:7, 5-[4-(6-Chloro-pyridin-3-ylamino)-benzoyl]-2-(3,4-difluoro-phenylamino)-benzoic acid], the inhibition at 10 µM was 90%.
`O=C(c1ccc(NC(=O)c2cc(Cl)ccc2Cl)cc1)c1ccc(Nc2ccc(F)c(F)c2)c(C(=O)O)c1` [5:10, 5-[4-(2,5-Dichloro-benzoylamino)-benzoyl]-2-(3,4-difluoro-phenylamino)-benzoic acid] gave an inhibition at 10 µM of 98%.
In the case of `O=C(Nc1ccc(C(=O)c2ccc(Nc3ccc(F)c(F)c3)c(C(=O)O)c2)cc1)c1cccc(Cl)c1` [5:11, 5-[4-(3-Chloro-benzoylamino)-benzoyl]-2-(3,4-difluoro-phenylamino)-benzoic acid], the inhibition at 10 µM is reported as 87%.
For `O=C(c1ccc(NC(=O)c2cc(Cl)cnc2Cl)cc1)c1ccc(Nc2ccc(F)c(F)c2)c(C(=O)O)c1` [5:12, 5-{4-[(2,5-Dichloro-pyridine-3-carbonyl)-amino]-benzoyl}-2-(3,4-difluoro-phenylamino)-benzoic acid], the inhibition at 10 µM was 98%.
With `CN(c1ccc(Cl)cc1)c1ccc(C(=O)c2ccc(Oc3ccc(Cl)cc3)c(C(=O)O)c2)cc1` [6:1, 2-(4-Chloro-phenoxy)-5-{4-[(4-chloro-phenyl)-methyl-amino]-benzoyl}-benzoic acid] the inhibition at 10 µM was 62%.
With `CN(c1ccc(Cl)cc1)c1ccc(C(=O)c2ccc(Oc3cccc(Cl)c3)c(C(=O)O)c2)cc1` [6:2, 2-(3-Chloro-phenoxy)-5-{4-[(4-chloro-phenyl)-methyl-amino]-benzoyl}-benzoic acid] the inhibition at 10 µM was 96%.
With `CN(c1ccc(Cl)cc1)c1ccc(C(=O)c2ccc(Oc3ccc(F)c(F)c3)c(C(=O)O)c2)cc1` [6:3, 5-{4-[(4-Chloro-phenyl)-methyl-amino]-benzoyl}-2-(3,4-difluoro-phenoxy)-benzoic acid] the inhibition at 10 µM was 90%.
`CN(c1ccc(Cl)cc1)c1ccc(C(=O)c2ccc(Oc3ccccc3Cl)c(C(=O)O)c2)cc1` [6:4, 2-(2-Chloro-phenoxy)-5-{4-[(4-chloro-phenyl)-methyl-amino]-benzoyl}-benzoic acid] gave an inhibition at 10 µM of 97%.
For `COc1cc(Cl)ccc1Oc1ccc(C(=O)c2ccc(N(C)c3ccc(Cl)cc3)cc2)cc1C(=O)O` [6:5, 2-(4-Chloro-2-methoxy-phenoxy)-5-{4-[(4-chloro-phenyl)-methyl-amino]-benzoyl}-benzoic acid], the inhibition at 10 µM was 98%.
With `CN(c1ccc(Cl)cc1)c1ccc(C(=O)c2ccc(Oc3cccc(Cl)c3F)c(C(=O)O)c2)cc1` [6:6, 2-(3-Chloro-2-fluoro-phenoxy)-5-{4-[(4-chloro-phenyl)-methyl-amino]-benzoyl}benzoic acid] the inhibition at 10 µM was 83%.
Work on `CN(c1ccc(Cl)cc1)c1ccc(C(=O)c2ccc(Oc3cccc(C(F)(F)F)c3F)c(C(=O)O)c2)cc1` [6:7, 5-{4-[(4-Chloro-phenyl)-methyl-amino]-benzoyl}-2-(2-fluoro-3-trifluoromethyl-phenoxy)-benzoic acid] yielded an inhibition at 10 µM of 96%.
Work on `CN(c1ccc(Cl)cc1)c1ccc(C(=O)c2ccc(Oc3ccccc3OC(F)(F)C(F)F)c(C(=O)O)c2)cc1` [6:8, 5-{4-[(4-Chloro-phenyl)-methyl-amino]-benzoyl}-2-[2-(1,1,2,2-tetrafluoro-ethoxy)-phenoxy]-benzoic acid] yielded an inhibition at 10 µM of 98%.
`CN(c1ccc(Cl)cc1)c1ccc(C(=O)c2ccc(Oc3cccc(Cl)c3Cl)c(C(=O)O)c2)cc1` [6:9, 5-{4-[(4-Chloro-phenyl)-methyl-amino]-benzoyl}-2-(2,3-dichloro-phenoxy)-benzoic acid] showed an inhibition at 10 µM of 66%.
`CN(c1ccc(Cl)cc1)c1ccc(C(=O)c2ccc(Oc3cccc4c3CCCC4)c(C(=O)O)c2)cc1` [6:10, 5-{4-[(4-Chloro-phenyl)-methyl-amino]-benzoyl}-2-(5,6,7,8-tetrahydro-naphthalen-1-yloxy)-benzoic acid] was tested, and the inhibition at 10 µM was 88%.
`O=C(Nc1ccc(C(=O)c2ccc(NC(=O)c3cccc(Cl)c3)c(C(=O)O)c2)cc1)c1cccc(Cl)c1` [7:1, 2-(3-Chloro-benzoylamino)-5-[4-(3-chloro-benzoylamino)-benzoyl]-benzoic acid] was tested, and the inhibition at 10 µM was 97%.
`O=C(Nc1ccc(C(=O)c2ccc(NS(=O)(=O)c3ccc(Cl)cc3)c(C(=O)O)c2)cc1)c1cccc(Cl)c1` [7:2, 2-(4-Chloro-benzenesulfonylamino)-5-[4-(3-chloro-benzoylamino)-benzoyl]-benzoic acid] showed an inhibition at 10 µM of 100%.
For `COc1ccc(Cl)cc1S(=O)(=O)Nc1ccc(C(=O)c2ccc(NC(=O)c3cccc(Cl)c3)cc2)cc1C(=O)O` [7:3, 5-[4-(3-Chloro-benzoylamino)-benzoyl]-2-(5-chloro-2-methoxy-benzenesulfonylamino)-benzoic acid], the inhibition at 10 µM was 96%.
With `O=C(Nc1ccc(C(=O)c2ccc(NC(=O)c3cccc(F)c3F)c(C(=O)O)c2)cc1)c1cccc(Cl)c1` [7:4, 5-[4-(3-Chloro-benzoylamino)-benzoyl]-2-(2,3-difluoro-benzoylamino)-benzoic acid] the inhibition at 10 µM was 100%.
Compound `O=C(Nc1ccc(C(=O)c2ccc(NC(=O)c3cccc4ccsc34)c(C(=O)O)c2)cc1)c1cccc(Cl)c1` [7:5, 2-[(Benzo[b]thiophene-7-carbonyl)-amino]-5-[4-(3-chloro-benzoylamino)-benzoyl]-benzoic acid] has an inhibition at 10 µM of 100%.
`O=C(Nc1ccc(C(=O)c2ccc(NC(=O)c3cccc4c3OC(F)(F)O4)c(C(=O)O)c2)cc1)c1cccc(Cl)c1` [7:6, 5-[4-(3-Chloro-benzoylamino)-benzoyl]-2-[(2,2-difluoro-benzo[1,3]dioxole-4-carbonyl)-amino]-benzoic acid] showed an inhibition at 10 µM of 100%.
Work on `O=C(Nc1ccc(C(=O)c2ccc(NC(=O)c3cccc(Cl)c3O)c(C(=O)O)c2)cc1)c1cccc(Cl)c1` [7:7, 5-[4-(3-Chloro-benzoylamino)-benzoyl]-2-(3-chloro-2-hydroxy-benzoylamino)-benzoic acid] yielded an inhibition at 10 µM of 82%.
In the case of `O=C(c1ccc(NS(=O)(=O)c2ccc(Cl)cc2)cc1)c1ccc(NC(=O)c2cc(Cl)ccc2O)c(C(=O)O)c1` [7:8, 5-[4-(4-Chloro-benzenesulfonylamino)-benzoyl]-2-(5-chloro-2-hydroxy-benzoylamino)-benzoic acid], the inhibition at 10 µM is reported as 96%.
`O=C(c1ccc(NS(=O)(=O)c2ccc(Cl)cc2)cc1)c1ccc(NC(=O)c2cccc(C(F)(F)F)c2F)c(C(=O)O)c1` [7:9, 5-[4-(4-Chloro-benzenesulfonylamino)-benzoyl]-2-(2-fluoro-3-trifluoromethyl-benzoylamino)-benzoic acid] gave an inhibition at 10 µM of 99%.
With `O=C(c1ccc(NS(=O)(=O)c2ccc(Cl)cc2)cc1)c1ccc(NC(=O)c2cccc(Cl)c2Cl)c(C(=O)O)c1` [7:10, 5-[4-(4-Chloro-benzenesulfonylamino)-benzoyl]-2-(2,3-dichloro-benzoylamino)-benzoic acid] the inhibition at 10 µM was 99%.
Compound `O=C(Nc1ccc(C(=O)c2ccc(NS(=O)(=O)c3ccc(Cl)cc3)cc2)cc1C(=O)O)c1cccc(Cl)c1` [7:11, 5-[4-(4-Chloro-benzenesulfonylamino)-benzoyl]-2-(3-chloro-benzoylamino)-benzoic acid] has an inhibition at 10 µM of 98%.
`O=C(c1ccc(Nc2ccc(F)c(F)c2)cc1)c1ccc(Oc2ccc(F)c(F)c2)c(C(=O)O)c1` [8:1, 2-(3,4-Difluoro-phenoxy)-5-[4-(3,4-difluoro-phenylamino)-benzoyl]-benzoic acid] gave an inhibition at 10 µM of 97%.
